Where “and” joins values, the source holds several entries; their conditions need not be identical. Identical values can stand only once.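 96-well plates; 48 h exposure; 5 concentrations. Endpoints by linear interpolation between flanking doses. Not reached: highest tested concentration assigned. At the GI50, growth is halved. TGI is the concentration that stops growth completely.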
Assays:
Experiment in all cases: growth of human tumour cells (NCI), 48 h
HL-60(TB) leukemia = tested on: HL-60(TB) leukemia
K-562 leukemia = tested on: K-562 leukemia
MCF7 breast = tested on: MCF7 breast
MDA-MB-231 breast = tested on: MDA-MB-231 breast
NCI-H460 lung = tested on: NCI-H460 lung
OVCAR-5 ovarian = tested on: OVCAR-5 ovarian
SF-539 CNS = tested on: SF-539 CNS
SN12C renal = tested on: SN12C renal
SNB-75 CNS = tested on: SNB-75 CNS
UO-31 renal = tested on: UO-31 renal

SMILES | GI50 (HL-60(TB) leukemia) [µM] | TGI (HL-60(TB) leukemia) | GI50 (K-562 leukemia) [µM] | TGI (K-562 leukemia) | GI50 (MCF7 breast) [µM] | TGI (MCF7 breast) [µM] | GI50 (MDA-MB-231 breast) [µM] | TGI (MDA-MB-231 breast) [µM] | GI50 (NCI-H460 lung) [µM] | TGI (NCI-H460 lung) | GI50 (OVCAR-5 ovarian) [µM] | TGI (OVCAR-5 ovarian) | GI50 (SF-539 CNS) [µM] | TGI (SF-539 CNS) | GI50 (SN12C renal) [µM] | TGI (SN12C renal) | GI50 (SNB-75 CNS) [µM] | TGI (SNB-75 CNS) | GI50 (UO-31 renal) [µM] | TGI (UO-31 renal)
CN(C)CCN1C(=O)c2ccccc2N(C)c2ccccc21 | > 100 | > 100 µM | > 100 | > 100 µM | > 100 | > 100 | > 100 | > 100 | > 100 | > 100 µM | > 100 | > 100 µM | > 100 | > 100 µM | > 100 | > 100 µM | > 100 | > 100 µM | > 100 | > 100 µM
C=C(C)C(=O)Nc1ccc(NC(C)C)cc1 | > 100 | > 100 µM | > 100 | > 100 µM | > 100 | > 100 | > 100 | > 100 | > 100 | > 100 µM | > 100 | > 100 µM | > 100 | > 100 µM | > 100 | > 100 µM | > 100 | > 100 µM | > 100 | > 100 µM
COc1ccc(C(=O)c2cc(OC)c(OC)c(OC)c2)cc1OC(=O)CCl | < 0.0152 | < 0.025 µM | < 0.0123 | > 100 µM | 0.0249 | > 100 | 0.0362 |  | 0.0399 | > 100 µM | 3.61 | > 100 µM | < 0.01 | 0.0541 µM | 0.0472 | > 100 µM | 0.0257 | > 100 µM | 0.373 | > 100 µM
Cc1cccc(C)c1NC(=O)C(C#N)C1=C(Cl)C(=O)c2ccccc2C1=O (stereo not drawn) |  | 38.2 µM |  | > 36.4 µM |  | 46.2 |  | 49.7 |  | 55.4 µM |  | 37.4 µM |  | 48.1 µM |  | 32 µM |  | 29.2 µM |  | 26.6 µM
COc1ccc(/C(COc2ccc3c(=O)cc(-c4ccccc4)oc3c2)=N\O)cc1 | > 14 | > 50 µM | 17.5 | > 50 µM | 9.68 | > 32.2 | 5.82 | 22.5 | 13.3 | > 50 µM | 0.402 | > 10.2 µM | 12.8 | 24.3 µM | 9.36 | 36.4 µM | > 31.8 | > 45.9 µM | 13.5 | > 50 µM
CN(O)c1nc(N(C)O)nc(N2CCOCC2)n1 | 16 | > 100 µM | > 100 | > 100 µM | 3.95 | > 100 | 7 | > 100 | 0.8 | > 100 µM | 41.2 | > 100 µM | 4.1 | > 100 µM | 7.48 | > 100 µM | 27.2 | > 100 µM | 2.41 | > 100 µM
CN[C@@H](C)C(=O)N[C@H](C(=O)N1CCC[C@H]1C(=O)Nc1snnc1-c1ccccc1)C1CCCCC1 | 21.7 | 48.1 µM | 24.4 | 57.7 µM | 59.1 | > 100 | 0.778 | 21.4 | 58.1 | > 100 µM | > 100 | > 100 µM | 1.08 | > 38.6 µM | 74.9 | > 100 µM | 25.4 | > 94.4 µM | 97.4 | > 100 µM
COc1cc(C[C@H]2c3cc(OC)c(OC)cc3CCN2C)c(Oc2cc3c(cc2OC)-c2c(OC)c(OC)cc4c2[C@H](C3)N(C)CC4)cc1OC | 5.71 | 13.9 µM and 19.4 µM | 1.49 | 15.6 µM and 5.4 µM |  | 27.8 |  | 14.9 | 14.1 | 20.1 µM and 27.5 µM | 18 | 33.6 µM and 32.6 µM | 3.97 | 16.2 µM and 9.41 µM | 16.6 | 39.8 µM and 30.8 µM | 9.19 | 15.3 µM and 24.3 µM | 9.73 | 16.8 µM and 22.6 µM
COC(=O)c1nc(-c2ccccc2)oc1S(=O)(=O)Cc1ccccc1 | 2.3 | 6.22 µM | 2.07 | 5.29 µM | 2.72 | 11.1 | 2.18 | 5.24 | 19.8 | 40 µM | 3.12 | 11.3 µM | 11.2 | 23.7 µM | 4.27 | 15.5 µM | 14.1 | 27.1 µM | 1.48 | 2.84 µM
C=C1C(=O)O[C@H]2[C@H]1CC/C(COC(=O)NCc1ccc(Cn3c(=O)sn(CCCl)c3=O)cc1)=C\CC[C@@]1(C)O[C@@H]21 | 1.92 | 4.96 µM | 2.07 | 5.63 µM | 1.91 | 4.4 | 1.89 | 3.68 | 15 | 32.5 µM | 1.97 | 4.19 µM | 1.82 | 3.26 µM | 2.01 | 4.28 µM | 7.65 | 21 µM | 1.65 | 3.25 µM
COc1ccc2nc3cccc([N+](=O)[O-])c3c(NCCCCCC(=O)O)c2c1 | 0.0372 | 6.2 µM | 0.0109 | 0.0251 µM | 0.0174 | 0.596 | 0.838 | 74 | 0.0442 | 0.806 µM | 0.132 | 1.11 µM | 0.404 | 1.44 µM | 0.131 | 1.16 µM | 0.282 | 1.57 µM | 0.161 | 0.484 µM
c1ccc2[nH]c(-c3ccc(-c4nccc5c4[nH]c4ccccc45)cc3)nc2c1 | 2.03 | 4.59 µM | 2.34 | 5.47 µM | 3.56 | 17.2 | 2.39 | 5.83 | 3.03 | 9.79 µM | 2.43 | 6.47 µM | 1.89 | 3.68 µM |  |  | 1.57 | 4.07 µM | 1.69 | 3.27 µM
COc1cc(NC(C)CCCNC2CN3CCC2CC3)c2ncccc2c1 (stereo not drawn) | 2.86 | 11 µM |  |  | 1.64 | 3.58 | 3.58 | 15.7 | 15.9 | 32.3 µM | 14.5 | 28.3 µM | 15.2 | 30.5 µM | 14.1 | 29.4 µM | 7.07 | 20.6 µM | 13.7 | 32.6 µM

— PubChem BioAssay (NCI)
